Data as given in patent US8455553B2, “Methods and compositions for prevention and treatment of inflammatory disease, autoimmune disease and transplant rejection” (The Regents of the University of California, priority 2001, dated 2013).
Entries after “also recorded” stand apart in the source; their conditions may differ. Where two headings read alike, the source gives them in different places.

Tests used:
[1] = test system: endotoxic shock induced by intraperitoneal injection of 1 μg LPS in the presence of 20 mg D-galactosamine in laboratory mice; assay: Endotoxic shock, low dose model (1 μg LPS + D-Gal), lethality; assay type: in vivo; conditions: for Mortality, percent dead: Table 3, Low Dose Model (1 μg LPS + D-Gal); for Mortality caused by septic shock: intraperitoneal administration prior to LPS challenge (Table 3)
Method: Endotoxic shock was induced by intraperitoneal injection of 1 μg LPS into laboratory mice in the presence of 20 mg D-galactosamine (D-Gal). This regimen leads to a 90-100% lethality rate by 9-12 hours post injection. The following data in Tables 1-3 reports the mortality rate over 28 days of observation. In one experiment, animals were treated intra peritoneally with piceatannol. […]

[2] = test system: septic shock induced by 1000 μg LPS intraperitoneally in mice; assay: Septic shock, high dose model (1000 μg LPS), lethality; assay type: in vivo; conditions: for Mortality, percent dead: Table 3, High Dose Model (1000 μg LPS), 1000 μM pre, 500 μM SC post every 12; for Mortality caused by septic shock: intraperitoneal administration prior to LPS challenge coupled with subcutaneous administration following LPS challenge (Table 3)
Method: (§1) Endotoxic shock was induced by intraperitoneal injection of 1 μg LPS into laboratory mice in the presence of 20 mg D-galactosamine (D-Gal). This regimen leads to a 90-100% lethality rate by 9-12 hours post injection. The following data in Tables 1-3 reports the mortality rate over 28 days of observation. In one experiment, animals were treated intra peritoneally with piceatannol.
In another experiment, 1 mg of LPS was administered intraperitoneally. Piceatannol or tetramethoxy-piceatannol (TMP) were administered intraperitoneally prior to LPS treatment, with some mice receiving subcutaneous doses of either piceatannol or TMP following LPS administration.

[3] = test system: mice that had received piceatannol alone; assay: Toxicity of piceatannol alone in mice; assay type: in vivo; conditions: for Lethality rate: no LPS
Method: as §1

[4] = test system: LPS induced gene expression (RANTES, MCP-1, ISG54, TNF); assay: LPS induced gene expression (interferon regulated genes) in vitro; assay type: cell-based
TNFα = assay: Production of TNFα in response to LPS in vitro; assay type: cell-based
IL-6 = assay: Production of IL-6 in response to LPS in vitro; assay type: cell-based
[5] = test system: MBP-TCR+/STAT1- mice developing spontaneous paralysis; assay: Experimental autoimmune encephalomyelitis (EAE), model for multiple sclerosis; assay type: in vivo
Text: Experimental autoimmune encephalomyelitis (EAE) represents a murine model for multiple sclerosis, a TH1 cells mediated demyelinating autoimmune disorder. In this modes, STAT1-deficient mice (Jackson Laboratories, Maine, USA) were crossed with mice carrying a tansgenic T cell receptor against Myelin Basis Protein (MBP) [Lafaille et al. (1994) Cell 78(3):399-408]. The resulting MBP-TCR^+/STAT1^− mice, when on an H2b/u or H2u/u background develop spontaneous paralysis. Typically, in this transgenic system, the disease progresses from early signs of hind leg paralysis (level 2) to the moribund stage of lethal paralysis (level 5) within 4-5 days.
Three mice showing clear signs of hind leg paralysis were injected s.c. with 1 mg piceatannol every 48 hours (FIG. 10). Under this regimen these animals survived for 30 days, at which time piceatannol administration was stopped.

Ovalbumin immunized mice = assay: Ovalbumin asthma model, cell infiltration in bronchioalveolar lavage fluid; assay type: in vivo; conditions: 1 mg i.p. daily, FIG. 11
Method: Mice (8 animals) were immunized by intraperitoneal (i.p.) injection of Ovalbumin after 2 weeks, The OA solution was administered into the nasal passage by inhalation without (4) or with (4) concurrent piceatannol regimen (1 mg i.p. daily).

[6] = cited from earlier work
tyrosine kinase Syk = conditions: Geahlen, et al. (1989); cited from earlier work
tyrosine kinase ZAP70 = biological target: T1, tyrosine kinase ZAP70 (Homo sapiens, UniProt P43403); conditions: Geahlen, et al. (1989); cited from earlier work
T1 sequence (P43403 1-619): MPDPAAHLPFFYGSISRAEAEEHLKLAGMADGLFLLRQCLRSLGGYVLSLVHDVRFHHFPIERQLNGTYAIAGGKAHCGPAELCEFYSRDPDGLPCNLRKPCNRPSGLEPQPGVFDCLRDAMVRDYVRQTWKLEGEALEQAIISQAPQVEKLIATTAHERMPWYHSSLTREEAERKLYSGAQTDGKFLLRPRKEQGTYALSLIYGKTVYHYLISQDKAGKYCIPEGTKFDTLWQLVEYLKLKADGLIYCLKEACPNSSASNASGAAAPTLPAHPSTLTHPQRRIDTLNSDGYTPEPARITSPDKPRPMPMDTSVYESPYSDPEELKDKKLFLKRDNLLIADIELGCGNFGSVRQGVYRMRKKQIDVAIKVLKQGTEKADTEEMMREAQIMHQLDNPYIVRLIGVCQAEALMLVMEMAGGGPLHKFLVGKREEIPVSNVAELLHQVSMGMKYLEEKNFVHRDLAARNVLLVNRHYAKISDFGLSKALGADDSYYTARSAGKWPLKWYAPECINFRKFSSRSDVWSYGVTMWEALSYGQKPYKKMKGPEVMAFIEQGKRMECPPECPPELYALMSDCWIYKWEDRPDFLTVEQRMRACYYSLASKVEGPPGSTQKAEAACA

tyrosine kinase Tyk2 = tyrosine kinase Tyk2 (Homo sapiens, UniProt P29597); conditions: Su, et al. (2000); cited from earlier work
Sequence of tyrosine kinase Tyk2 (P29597 whole entry): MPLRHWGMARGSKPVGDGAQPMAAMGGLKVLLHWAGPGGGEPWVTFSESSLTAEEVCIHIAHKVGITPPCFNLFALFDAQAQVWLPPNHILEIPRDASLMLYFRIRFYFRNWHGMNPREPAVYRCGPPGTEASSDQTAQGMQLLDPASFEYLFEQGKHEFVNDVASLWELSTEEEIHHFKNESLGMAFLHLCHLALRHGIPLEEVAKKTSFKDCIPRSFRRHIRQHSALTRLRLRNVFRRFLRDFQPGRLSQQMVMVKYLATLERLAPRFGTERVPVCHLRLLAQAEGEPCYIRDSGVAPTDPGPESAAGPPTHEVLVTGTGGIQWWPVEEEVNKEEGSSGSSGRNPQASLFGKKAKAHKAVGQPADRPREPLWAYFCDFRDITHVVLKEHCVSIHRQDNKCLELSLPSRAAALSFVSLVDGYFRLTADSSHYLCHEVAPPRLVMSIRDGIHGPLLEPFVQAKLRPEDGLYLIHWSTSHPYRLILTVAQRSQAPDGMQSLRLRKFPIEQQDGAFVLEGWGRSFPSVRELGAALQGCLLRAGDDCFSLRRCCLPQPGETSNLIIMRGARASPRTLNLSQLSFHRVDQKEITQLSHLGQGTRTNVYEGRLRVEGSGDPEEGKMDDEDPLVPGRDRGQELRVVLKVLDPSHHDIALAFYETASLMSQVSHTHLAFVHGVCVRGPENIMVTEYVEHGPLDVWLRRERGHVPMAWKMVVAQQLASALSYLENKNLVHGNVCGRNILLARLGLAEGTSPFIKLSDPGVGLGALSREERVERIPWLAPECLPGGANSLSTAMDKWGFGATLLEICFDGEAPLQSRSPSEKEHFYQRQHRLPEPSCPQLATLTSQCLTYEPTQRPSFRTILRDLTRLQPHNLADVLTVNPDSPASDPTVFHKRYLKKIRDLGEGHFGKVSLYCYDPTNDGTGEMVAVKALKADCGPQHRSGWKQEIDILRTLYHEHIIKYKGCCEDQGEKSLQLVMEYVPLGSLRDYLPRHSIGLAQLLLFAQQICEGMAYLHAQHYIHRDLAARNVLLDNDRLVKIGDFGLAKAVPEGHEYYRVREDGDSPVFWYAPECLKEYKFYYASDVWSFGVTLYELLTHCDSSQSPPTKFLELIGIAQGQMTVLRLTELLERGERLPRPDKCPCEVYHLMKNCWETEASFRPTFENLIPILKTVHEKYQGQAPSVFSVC

Structure (SMILES): Oc1cc(O)cc(/C=C/c2ccc(O)c(O)c2)c1 [Piceatannol, 3,3′,4,5′-tetrahydroxy-trans-stilbene]
- Lethality rate ([1]; Table 1, LPS 1 μg (+D-Gal) ip, piceatannol 250 μg ip, 28 days of observation): 5/12
- Lethality rate ([1]; Table 1, LPS 1 μg (+D-Gal) ip, piceatannol 500 μg ip, 28 days of observation): 0/8
- Lethality rate ([1]; Table 2, LPS + D-Gal 1 μg ip, piceatannol 250 μg (ip)): 3/8
- Lethality rate ([1]; Table 2, LPS + D-Gal 1 μg ip, piceatannol 250 μg (iv) + 250 μg (ip)): 0/6
- Lethality rate ([1]; Table 2, LPS + D-Gal 1 μg ip, piceatannol 400 μg (ip)): 0/2
- Mortality, percent dead ([1]; 400 μM ip prior to LPS): 48%
- Mortality, percent dead ([1]; 1000 μM ip prior to LPS): 35%
- Animals rescued ([1]; administration several hours after LPS challenge, animal model of sepsis): approximately 50%
- Protection against endotoxic shock ([1]; combined intravenous and intraperitoneal administration): up to 100%
- Mortality caused by septic shock [1]: significantly reducing mortality
- Death associated with endotoxic shock ([1]; single administration by either the intravenous or intraperitoneal route): significantly reduced death
- Protection against endotoxic shock ([1]; single administration, animal model of sepsis): up to 100%
- Lethality rate ([2]; Table 1, LPS 1000 μg ip, piceatannol 500 → 1000 μg ip, 28 days of observation): 3/8
- Mortality, percent dead [2]: 50%
- Mortality caused by septic shock [2]: significantly reduced mortality
- Lethality rate ([3]; Table 1, piceatannol 1000 μg intraperitoneal, dead/total, 28 days of observation): 0/8
- Lethality rate ([3]; Table 2, piceatannol 1000 μg (ip)): 0/6
- Lethality rate ([3]; Table 2, piceatannol 1000 μg (iv)): 0/2
- Toxicity in vivo (overall statement) ([3]; data of Tables 1 and 2 / Examples 1 and 3): very low toxicity; also recorded: low toxicity
- Acute or chronic toxicity ([3]; healthy animals, repeated high dose (1 mg) intraperitoneal injections): did not detect any acute or chronic toxicity
- Acute toxicity (within 2 hours post-injection) ([3]; piceatannol alone, up to 1 mg intraperitoneal or intravenously): no signs of acute (i.e., within 2 hours post-injection) toxicity
- Delayed toxicity ([3]; with or without subsequent LPS injection, monitored for several weeks): no signs of delayed toxicity
- Concentration that blocks LPS induced gene expression (e.g., RANTES, MCP-1, TNF) [4]: micromolar range
- Concentration that blocks LPS induced gene expression (e.g., RANTES, MCP-1, ISG54) ([4]; in vitro): micromolar concentrations; also recorded: micromolar range
- Production of TNFα in response to LPS (TNFα): inhibited
- Production of IL-6 in response to LPS (IL-6): inhibited
- Time to complete paralysis and death after administration was stopped ([5]; after 30 days of 1 mg s.c. every 48 hours): Ten
- Disease progression ([5]; for the duration of administration, 1 mg s.c. every 48 hours): completely halted disease progression
- Survival under treatment ([5]; three mice with hind leg paralysis, 1 mg s.c. every 48 hours, administration stopped at that time): 30 days
- Eosinophils infiltration into the lungs (Ovalbumin immunized mice): significant reduction
- Lymphocytes infiltration into the lungs (Ovalbumin immunized mice): significant reduction
- Water solubility [6]: partially water soluble
- Water solubility ([6]; listed as piceatannol): water soluble
- Inhibition of tyrosine kinase Syk (tyrosine kinase Syk): inhibitor
- Inhibition of tyrosine kinase ZAP70 (tyrosine kinase ZAP70): inhibitor
- Inhibition of tyrosine kinase Tyk2 (tyrosine kinase Tyk2): potent inhibitor

Structure (SMILES): COc1cc(/C=C/c2ccc(OC)c(OC)c2)cc(OC)c1 [TMP, tetramethoxy-piceatannol]
- Mortality, percent dead ([1]; 1000-1250 μM ip prior to LPS): 38%
- Mortality caused by septic shock [1]: significantly reducing mortality
- Mortality, percent dead [2]: 44%
- Mortality caused by septic shock [2]: significantly reduced mortality
- Inhibition of LPS-mediated ISG induction, compared with piceatannol ([4]; in vitro): as effective as piceatannol

Structure (SMILES): Oc1ccc(/C=C/c2cc(O)cc(O)c2)cc1 [resveratrol, trihydroxy-stilbene]
- Water solubility [6]: water soluble
